Data on six compounds can be found in patent US20250288704A1, “CXCR4-LIGANDS FOR DIAGNOSTIC AND THERAPEUTIC USE AND PRECURSORS THEREOF” (priority 2021, published 2025).

Data set [1] can be described thus: Biodistribution in Jurkat tumor-bearing CB-17 SCID mice. Type of data set: in vivo. The conditions noted are these: female, CB-17 SCID, mouse, in vivo, iv, total radioactivity. As to the method:
All animal experiments were conducted in accordance with general animal welfare regulations in Germany and the institutional guidelines for the care and use of animals. To establish tumor xenografts, Jurkat cells (2-3×10^7 cells) were suspended in a mixture of Gibco's RPMI 1640 medium and Matrigel (1/1; v/v) from BD Biosciences (Heidelberg, Germany), and inoculated subcutaneously onto the right shoulder of 6-10 weeks old CB17-SCID mice from either Charles River GmbH (Sulzfeld, Germany) or the in-house mouse breeding facility. Mice were used when tumors had grown to a diameter of 5-8 mm (4-10 weeks after inoculation).
Approximately 0.5-20 MBq (0.02-0.20 nmol) of the ^125I-, ^177Lu-, ^99mTc-, ^18F- or ^68Ga-labeled ligand were injected into the tail vein of Jurkat tumor-bearing CB-17 SCID mice and the animals sacrificed after the respective biodistribution time. Selected organs were removed, weighted and measured in a γ-counter.

Data set [2] can be described thus: Octanol/PBS partition coefficient (logD7.4). Format: physicochemical. To be noted: n-octanol/PBS pH 7.4, radiolabeled compound. As to the method:
The tubes were vortexed at maximum speed for 3 min to ensure equilibrium before centrifugation at 15.000×g for 5 min on a Biofuge 15 from Heraeus Holding GmbH (Osterode, Germany). An aliquot of 100 μL of each fraction was measured in the γ-counter and the log D7.4 calculated as follows: […]

The subject of data set [3] is CXCR4-expressing Chem_1 cells. As to the kind of experiment: Determination of internalization, dual tracer with 125I-Fc-131. Type of data set: cell-based. The conditions noted are these: for Cell-bound [%] / Internalized [%]: of total cellular activity. The protocol: CXCR4-expressing Chem_1 cells were grown in DMEM-F12 medium supplemented with 10 vol % FBS, 1 vol % NEA, 1 vol % PenStrep and 1 vol % HEPES (1.00 M). Cells were maintained in a 5% CO2 atmosphere at 37° C.
For in vitro experiments, cells were harvested by removal of the medium and incubation of the cells with trypsine/EDTA (0.05%/0.02%; w/v) for 30 in at 37° C.
Each well (n=3 for every time point) was either treated with 25 μL DMEM-F12 (+5 wt % BSA) or 25 μL of an AMD3100 stock (1 mM in H2O) for blockage of the receptors.
The experiment was stopped by placing the well-plate on ice and removing the supernatant. The cells were washed with 250 μL cold HBSS and the both fractions for each well combined, comprising the amount of unbound radioligand.
The supernatant was removed, the cells washed with cold HBSS and the respective fractions combined to obtain the amount of surface-bound radioligand.
The cells were then incubated with 300 μL NaOH (1.00 M in H2O) for at least 30 at r.t. before the supernatant was removed. The well was washed with another 300 μL NaOH and the fractions combined that contain the amount of internalized radioligand.
The three different fractions were subjected to activity measurement in the γ-counter, measuring the activity of the radionuclide used for the labeling of the peptide under investigation first. […] Data was corrected for non-specific internalization and referred to the specific internalization of the standard ligand

SMILES strings stand for the structures. Like-named read-outs stand apart in the source and are kept apart here. Positions of bridges follow the written chain, without caps; N, C: chain ends. Non-standard residues stand in square brackets, D forms with d. Residues, ends and D or L forms follow the SMILES beside them. Groups on a side chain read outwards from the residue. Chains are numbered I, II in the order given. *: point of attachment. X2 = OC[C@H]1O[C@@H](O[C@H]2[C@H](O)[C@@H](O)[C@H](*)O[C@@H]2CO)[C@H](O)[C@@H](O)[C@H]1O; X5 = CC(C)(C)[Si](F)(c1ccc(C[N+](C)(C)CC(=O)*)cc1)C(C)(C)C; DOTA = O=C(O)CN1CCN(CC(=O)O)CCN(CC(=O)*)CCN(CC(=O)O)CC1; dTyr(3-I) = N[C@H](Cc1ccc(O)c(I)c1)C(=O)O; 2Nal = N[C@@H](Cc1ccc2ccccc2c1)C(=O)O; dNMeOrn = CN[C@H](CCCN)C(=O)O; d(hCys) = N[C@H](CCS)C(=O)O; 4Amb = NCc1ccc(C(=O)O)cc1; 4Abz = Nc1ccc(C(=O)O)cc1; dDap = NC[C@@H](N)C(=O)O; Ahx = NCCCCCC(=O)O

In the case of `C[C@@H](NC(=O)[C@@H](CCCNC(=N)N)NC(=O)[C@@H](CN)NC(=O)CN1CCN(CC(=O)O)CCN(CC(=O)O)CCN(CC(=O)O)CC1)C(=O)NCc1ccc(C(=O)NCCC[C@@H]2C(=O)N[C@@H](CCCNC(=N)N)C(=O)N[C@@H](Cc3ccc4ccccc4c3)C(=O)NCC(=O)N[C@H](Cc3ccc(O)cc3)C(=O)N2C)cc1` [CXCR4-DOTA-1 [Lu]] (cyclo([dY][dNMeOrn]([4Amb-dA-dR-dDap-DOTA])R[2Nal]G)), the tissue uptake at 1 h turned out to be 1.24 %ID/g in data set [1] (% iD/g Blood); 0.72 %ID/g in data set [1] (% iD/g Bone); 0.73 %ID/g in data set [1] (% iD/g Heart); 0.67 %ID/g in data set [1] (% iD/g Intestine); 18.8 %ID/g in data set [1] (% iD/g Kidney); 11 %ID/g in data set [1] (% iD/g Liver). The tissue uptake at 1 h in data set [1] (% iD/g Lung) was found to be 2.16 %ID/g; in data set [1] (% iD/g Muscle) it was 0.22 %ID/g; in data set [1] (% iD/g Pancreas), 0.39 %ID/g; in data set [1] (% iD/g Spleen) it was 3.19 %ID/g; in data set [1] (% iD/g Stomach) it was 1.06 %ID/g; in data set [1] (% iD/g Tumor), 5.98 %ID/g.

Consider `C[C@@H](NC(=O)[C@@H](CCCNC(=N)N)NC(=O)[C@@H](CN)NC(=O)CN1CCN(CC(=O)O)CCN(CC(=O)O)CCN(CC(=O)O)CC1)C(=O)Nc1ccc(C(=O)NCCC[C@@H]2C(=O)N[C@@H](CCCNC(=N)N)C(=O)N[C@@H](Cc3ccc4ccccc4c3)C(=O)NCC(=O)N[C@H](Cc3ccc(O)cc3)C(=O)N2C)cc1` [CXCR4-DOTA-3 [Ga]] (cyclo([dY][dNMeOrn]([4Abz-dA-dR-dDap-DOTA])R[2Nal]G)), for which, in data set [2], the logD7.4 was −3.35 ± 0.08 (5).

On to `C[C@@H](NC(=O)[C@@H](CCCNC(=N)N)NC(=O)[C@@H](CN)NC(=O)CN1CCN(CC(=O)O)CCN(CC(=O)O)CCN(CC(=O)O)CC1)C(=O)Nc1ccc(C(=O)NCCC[C@@H]2C(=O)N[C@@H](CCCNC(=N)N)C(=O)N[C@@H](Cc3ccc4ccccc4c3)C(=O)NCC(=O)N[C@H](Cc3ccc(O)c(I)c3)C(=O)N2C)cc1` [CXCR4-DOTA-4 [Ga]] (cyclo([dTyr(3-I)][dNMeOrn]([4Abz-dA-dR-dDap-DOTA])R[2Nal]G)), for which the logD7.4 in data set [2] is on record as −2.65 ± 0.22 (6).

With `C[C@@H](NC(=O)[C@@H](CCCNC(=N)N)NC(=O)[C@@H](CN)NC(=O)CCCCCNC(=O)[C@@H](CNC(=O)CN1CCN(CC(=O)O)CCN(CC(=O)O)CCN(CC(=O)O)CC1)NC(=O)[C@@H](CCS[C@@H]1O[C@H](CO)[C@@H](O[C@@H]2O[C@H](CO)[C@H](O)[C@H](O)[C@H]2O)[C@H](O)[C@H]1O)NC(=O)C[N+](C)(C)Cc1ccc([Si](F)(C(C)(C)C)C(C)(C)C)cc1)C(=O)Nc1ccc(C(=O)NCCC[C@@H]2C(=O)N[C@@H](CCCNC(=N)N)C(=O)N[C@@H](Cc3ccc4ccccc4c3)C(=O)NCC(=O)N[C@H](Cc3ccc(O)cc3)C(=O)N2C)cc1` [CXCR4-SiFA-7 [Ga]] (I: X5-[d(hCys)](X2)[dDap](DOTA)[Ahx][dDap][dR][dA][4Abz] / II: cyclo([dY][dNMeOrn]R[2Nal]G); amide I:C-II:2), the tissue uptake at 1 h in data set [1] (Blood, 1 h p.i., Jurkat xenograft, CB-17 SCID female mice, read-out: % iD/g Blood) stood at 0.85 %ID/g; in data set [1] (Bone, 1 h p.i., Jurkat xenograft, CB-17 SCID female mice, read-out: % iD/g Bone), 2.89 %ID/g; in data set [1] (Heart, 1 h p.i., Jurkat xenograft, CB-17 SCID female mice, read-out: % iD/g Heart), 1.13 %ID/g; in data set [1] (Intestine, 1 h p.i., Jurkat xenograft, CB-17 SCID female mice, read-out: % iD/g Intestine), 0.81 %ID/g; in data set [1] (Kidney, 1 h p.i., Jurkat xenograft, CB-17 SCID female mice, read-out: % iD/g Kidney), 11.1 %ID/g; in data set [1] (Liver, 1 h p.i., Jurkat xenograft, CB-17 SCID female mice, read-out: % iD/g Liver), 53.5 %ID/g. In addition, the tissue uptake at 1 h in data set [1] (Lung, 1 h p.i., Jurkat xenograft, CB-17 SCID female mice, read-out: % iD/g Lung) came to 2.13 %ID/g; in data set [1] (Muscle, 1 h p.i., Jurkat xenograft, CB-17 SCID female mice, read-out: % iD/g Muscle) it was 0.26 %ID/g; in data set [1] (Pancreas, 1 h p.i., Jurkat xenograft, CB-17 SCID female mice, read-out: % iD/g Pancreas), 0.51 %ID/g; in data set [1] (Spleen, 1 h p.i., Jurkat xenograft, CB-17 SCID female mice, read-out: % iD/g Spleen) it was 6.96 %ID/g; in data set [1] (Stomach, 1 h p.i., Jurkat xenograft, CB-17 SCID female mice, read-out: % iD/g Stomach) it was 0.63 %ID/g; in data set [1] (Tumor, 1 h p.i., Jurkat xenograft, CB-17 SCID female mice, read-out: % iD/g Tumor), 0.67 %ID/g.

With `C[C@@H](NC(=O)[C@@H](CCCNC(=N)N)NC(=O)[C@@H](CN)NC(=O)CCCCCNC(=O)[C@@H](CNC(=O)CN1CCN(CC(=O)O)CCN(CC(=O)O)CCN(CC(=O)O)CC1)NC(=O)CCCCC[N+]1=C(/C=C/C=C/C=C2/N(C)c3ccc(S(=O)(=O)O)cc3C2(C)C)C(C)(C)c2cc(S(=O)(=O)[O-])ccc21)C(=O)Nc1ccc(C(=O)NCCC[C@@H]2C(=O)N[C@@H](CCCNC(=N)N)C(=O)N[C@@H](Cc3ccc4ccccc4c3)C(=O)NCC(=O)N[C@H](Cc3ccc(O)cc3)C(=O)N2C)cc1` [[^natLu]CXCR4-OI-3, metal not drawn], the tissue uptake at 1 h was 1.9 %ID/g in data set [1] (% iD/g Blood); 1.1 %ID/g in data set [1] (% iD/g Bone); 1.39 %ID/g in data set [1] (% iD/g Heart); 0.85 %ID/g in data set [1] (% iD/g Intestine); 35 %ID/g in data set [1] (% iD/g Kidney); 36.3 %ID/g in data set [1] (% iD/g Liver). Moreover, the tissue uptake at 1 h came out at 4.28 %ID/g in data set [1] (% iD/g Lung); 0.33 %ID/g in data set [1] (% iD/g Muscle); 0.44 %ID/g in data set [1] (% iD/g Pancreas); 5.94 %ID/g in data set [1] (% iD/g Spleen); 1.43 %ID/g in data set [1] (% iD/g Stomach); 2.13 %ID/g in data set [1] (% iD/g Tumor). In addition, the “Internalized in relation to 125I-Fc-131 [%]” value is 442 ± 12.1% in data set [3] (30 min) and 540 ± 42.7% in data set [3] (90 min). For the same compound, the results for the “Cell-bound [%]” value in data set [3] (30 min) and in data set [3] (90 min) were 5.39 ± 0.41% and 5.36 ± 0.47%, respectively. Also, the “Internalized [%]” value in data set [3] (30 min) is 16.5 ± 0.19%; in data set [3] (90 min) it was 25.2 ± 1.08%.

`CN1C(=O)[C@@H](Cc2ccc(O)cc2)NC(=O)CNC(=O)[C@H](Cc2ccc3ccccc3c2)NC(=O)[C@H](CCCNC(=N)N)NC(=O)[C@H]1CCCNC(=O)c1ccc(CNC(=O)CN2CCN(CC(=O)O)CCN(CC(=O)O)CCN(CC(=O)O)CC2)cc1` [^68Ga-Pentixafor, cyclo(D-Tyr^1-D-[NMe](DOTA)-Orn^2Arg^3-Nal^4-Gly^5), metal not drawn, reference compound] (cyclo([dY][dNMeOrn]([4Amb-DOTA])R[2Nal]G)): the tissue uptake at 1 h in data set [1] (% iD/g Blood) worked out at 1.29 %ID/g; in data set [1] (% iD/g Bone) it was 0.48 %ID/g; in data set [1] (% iD/g Heart) it was 0.56 %ID/g; in data set [1] (% iD/g Intestine), 0.43 %ID/g; in data set [1] (% iD/g Kidney), 2.75 %ID/g; in data set [1] (% iD/g Liver), 1.59 %ID/g. The tissue uptake at 1 h was 1.57 %ID/g in data set [1] (% iD/g Lung); 0.19 %ID/g in data set [1] (% iD/g Muscle); 0.14 %ID/g in data set [1] (% iD/g Pancreas); 1.48 %ID/g in data set [1] (% iD/g Spleen); 0.51 %ID/g in data set [1] (% iD/g Stomach); 7.58 %ID/g in data set [1] (% iD/g Tumor).
